# Reference: ChEMBL document CHEMBL1201862, “PubChem BioAssay data set” (2004)
# Active and inactive are the calls of the source.
# Target: T1, Streptokinase A (Streptococcus pyogenes serotype M1, UniProt P10520)
# T1 sequence (P10520 whole entry): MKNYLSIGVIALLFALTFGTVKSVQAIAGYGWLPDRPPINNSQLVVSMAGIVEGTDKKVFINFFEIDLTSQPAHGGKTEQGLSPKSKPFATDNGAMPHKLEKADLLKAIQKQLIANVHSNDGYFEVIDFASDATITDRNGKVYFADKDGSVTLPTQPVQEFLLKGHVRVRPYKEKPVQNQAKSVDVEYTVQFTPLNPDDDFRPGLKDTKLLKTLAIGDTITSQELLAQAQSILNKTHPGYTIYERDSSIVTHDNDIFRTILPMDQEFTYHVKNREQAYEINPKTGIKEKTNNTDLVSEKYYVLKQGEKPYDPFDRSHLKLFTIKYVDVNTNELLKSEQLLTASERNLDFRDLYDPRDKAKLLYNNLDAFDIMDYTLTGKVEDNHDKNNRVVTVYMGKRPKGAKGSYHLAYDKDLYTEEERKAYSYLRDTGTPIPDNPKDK
# Experiment: viability-normalized secreted streptokinase activity reduction – plasminogen activation absorbance, OD405, dose response (AID 1914);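 further: secreted streptokinase activity via plasminogen activation per viability signal from cell pellet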
# Type: functional, Streptococcus pyogenes M1 GAS
# Details: not given
row,Compound,EC50
1,COc1ccc(C(=O)NC2CCCCCC2)cc1S(=O)(=O)N1CCOCC1,> 150 µM (not active)
2,CN(C)/C=C1\SC(=S)N(c2ccc(Br)cc2)C1=O,17.2 µM (active)
3,CCC(C)c1ccc(C(C)N=C(S)NC2CCCCC2)cc1 (centres undefined),146 µM (active)
4,Clc1ccccc1CN(Cc1ccccc1)c1ncnc2nc[nH]c12,> 150 µM (not active)
5,COc1cc(OC)cc(C(=O)Nc2nc3ccccc3[nH]2)c1,> 150 µM (not active)
6,O=C(Nc1ccc(OC(F)(F)F)cc1)C1CCCN(S(=O)(=O)c2c[nH]cn2)C1 (centres undefined),> 150 µM (not active)
7,Cc1ccccc1OCC(=O)Nc1ccccc1N1CCC(C)CC1,45 µM (active)

# System: Streptococcus sp. 'group A'
# Experiment: Streptococcus pyogenes SK(-)GAS viability under kanamycin – luminescence, BacTiterGlo, confirmation, counter-screen for streptokinase expression inhibitor project, dose response (AID 1900)
# Type: functional, organism-based
# Details: not given
row,Compound,EC50
1,COc1ccc(C(=O)NC2CCCCCC2)cc1S(=O)(=O)N1CCOCC1,> 150 µM (not active)
2,CN(C)/C=C1\SC(=S)N(c2ccc(Br)cc2)C1=O,7.37 µM (active)
3,CCC(C)c1ccc(C(C)N=C(S)NC2CCCCC2)cc1 (centres undefined),8.05 µM (active)
4,COc1cc(OC)cc(C(=O)Nc2nc3ccccc3[nH]2)c1,7.14 µM (active)
5,O=C(Nc1ccc(OC(F)(F)F)cc1)C1CCCN(S(=O)(=O)c2c[nH]cn2)C1 (centres undefined),> 150 µM (not active)
6,Cc1ccccc1OCC(=O)Nc1ccccc1N1CCC(C)CC1,6.64 µM (active)

# Target: T2, Heat shock factor protein 1 (Mus musculus, UniProt P38532)
# T2 sequence (P38532 whole entry): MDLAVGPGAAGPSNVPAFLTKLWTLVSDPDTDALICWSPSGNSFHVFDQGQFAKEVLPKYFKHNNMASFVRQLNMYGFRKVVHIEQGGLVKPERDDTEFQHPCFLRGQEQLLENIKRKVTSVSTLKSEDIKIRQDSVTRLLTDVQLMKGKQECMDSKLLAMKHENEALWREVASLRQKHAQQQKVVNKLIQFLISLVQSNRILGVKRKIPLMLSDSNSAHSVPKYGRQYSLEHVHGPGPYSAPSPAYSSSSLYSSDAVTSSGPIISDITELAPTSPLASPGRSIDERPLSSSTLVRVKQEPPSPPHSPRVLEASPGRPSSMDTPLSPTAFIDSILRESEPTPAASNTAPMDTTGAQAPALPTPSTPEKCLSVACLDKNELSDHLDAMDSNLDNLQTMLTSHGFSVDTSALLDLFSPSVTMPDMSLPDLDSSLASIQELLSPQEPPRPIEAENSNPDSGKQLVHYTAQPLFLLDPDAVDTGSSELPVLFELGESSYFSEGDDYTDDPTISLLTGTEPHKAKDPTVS
# Experiment: decrease of HSF1-responsive luciferase luminescence – cell-based, NIH3T3, dose retest, confirmation (AID 2382);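 further: NIH3T3 fibroblasts with HSF1-driven luciferase reporter stressed by proteasome inhibitor MG132; luminescence from HSF1-driven luciferase expression after 8 hours of MG132 stress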
# Type: functional
# Details: not given
row,Compound,EC50
1,Cc1ccc(C(=N)NOC(=O)CN(C)S(=O)(=O)c2ccc(C)cc2)cc1,> 195 µM (not active)
2,COc1ccc(CN(C)C(=O)c2cc(S(=O)(=O)N3CCOCC3)ccc2N2CCCC2)cc1,> 195 µM (not active)
3,CCNC(=O)CNC(=O)c1nn(Cc2ccccc2)c(=O)c2ccccc12,> 195 µM (not active)
4,Cc1ccccc1Cn1ccc(NC(=O)c2cnn3c(C(F)(F)F)cc(-c4ccco4)nc23)n1,19.1 µM (active)
5,Cc1cc(Cl)ccc1OCCCC(=O)N1CCOCC1,> 195 µM (not active)
6,CN1CCN(C(=O)/C(=C\c2cccs2)NC(=O)c2ccco2)CC1,> 195 µM (not active)
7,O=C(O)c1ccc(N2C(=O)CC(N3CCN(c4cccc(C(F)(F)F)c4)CC3)C2=O)cc1 (centres undefined),> 195 µM (not active)
8,CC(C)CCNC(=O)C1CCCN1C(=O)NC1CCCCC1 (centres undefined),> 195 µM (not active)
9,Cc1cccc(NC(=O)Cn2c(=O)n(Cc3ccco3)c(=N)c3c4c(sc32)COC(C)(C)C4)c1,> 195 µM (not active)
10,O=C1SCC(c2ccccc2)=NN1Cc1ccccc1,> 195 µM (not active)
11,COc1cccc(C2C(C(=O)c3cc4ccccc4o3)=C(O)C(=O)N2c2cc(C)on2)c1 (centres undefined),> 195 µM (not active)
12,COc1ccc(CNC(=O)c2cnc3scc(C)n3c2=O)cc1,> 195 µM (not active)

# System: Streptococcus
# Experiment: GAS UMAA2166 growth inhibition – luminescence, BacTiterGlo, counter-screen for streptokinase expression inhibitor project, dose response (AID 1915);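 further: potency for reduction of bacterial viability or growth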
# Type: functional, organism-based
# Details: not given
row,Compound,EC50
1,COc1ccc(C(=O)NC2CCCCCC2)cc1S(=O)(=O)N1CCOCC1,> 150 µM (not active)
2,CN(C)/C=C1\SC(=S)N(c2ccc(Br)cc2)C1=O,52.3 µM (active)
3,CCC(C)c1ccc(C(C)N=C(S)NC2CCCCC2)cc1 (centres undefined),18.1 µM (active)
4,COc1cc(OC)cc(C(=O)Nc2nc3ccccc3[nH]2)c1,> 150 µM (not active)
5,O=C(Nc1ccc(OC(F)(F)F)cc1)C1CCCN(S(=O)(=O)c2c[nH]cn2)C1 (centres undefined),> 150 µM (not active)
6,Cc1ccccc1OCC(=O)Nc1ccccc1N1CCC(C)CC1,11.1 µM (active)

# Target: Cytochrome P450 2C19 (Homo sapiens, UniProt P33261)
# Experiment: Cytochrome panel assay with activity outcomes. Panel member name: p450-cyp2c19 Compounds with AC50 equal or less than 10 uM are considered active
# Type: functional
# Details: not given
# Sequence of Cytochrome P450 2C19 (P33261 whole entry): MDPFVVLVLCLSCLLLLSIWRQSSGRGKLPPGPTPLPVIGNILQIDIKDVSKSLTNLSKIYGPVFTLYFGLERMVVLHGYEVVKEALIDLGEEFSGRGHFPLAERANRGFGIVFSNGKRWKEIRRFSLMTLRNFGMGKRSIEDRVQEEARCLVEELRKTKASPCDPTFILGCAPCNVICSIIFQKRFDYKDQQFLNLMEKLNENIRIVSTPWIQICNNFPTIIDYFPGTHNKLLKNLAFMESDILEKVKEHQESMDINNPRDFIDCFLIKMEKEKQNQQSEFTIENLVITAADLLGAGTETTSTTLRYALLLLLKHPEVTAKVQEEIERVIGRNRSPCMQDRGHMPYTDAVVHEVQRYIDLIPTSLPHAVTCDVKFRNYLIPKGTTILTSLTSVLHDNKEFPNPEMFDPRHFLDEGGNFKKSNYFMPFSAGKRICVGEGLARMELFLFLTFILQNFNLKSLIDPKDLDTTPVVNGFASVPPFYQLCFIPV
row,Compound,AC50
1,CN1CCC(=C2c3ccccc3CC(=O)c3sccc32)CC1 [KETOTIFEN],inconclusive

# Same assay, conditions: read-out: AC50
row,Compound,AC50
1,COC(=O)[C@@]1(Cc2ccc(OC)cc2)[C@H]2c3cc(C(=O)N4CCCC4)n(CCc4ccccn4)c3C[C@H]2CN1C(=O)c1ccccc1,25.1 µM (inconclusive)
2,COc1ccc(NC(=O)N2CC3(CCN(C(=O)c4c(C)noc4C)CC3)C2)cc1,39.8 µM (inconclusive)
